The text below walks through data of ChEMBL document CHEMBL5390310, “Rapid PROTAC Discovery Platform: Nanomole-Scale Array Synthesis and Direct Screening of Reaction Mixtures” (ACS Med Chem Lett, 2023).

The first assay deals with T1, von Hippel-Lindau disease tumor suppressor/Bromodomain-containing protein 4 (Homo sapiens, UniProt O60885+P40337). As to the kind of experiment: Protac activity at VHL E3 ligase/BRD4 in HEK293 cells assessed as BRD4 degradation by HiBiT assay. The class given is cell-based. On the technique in general: The HiBiT peptide binds its large partner to form an active luciferase.
T1 sequence (P40337 whole entry, looked up, other chains not shown): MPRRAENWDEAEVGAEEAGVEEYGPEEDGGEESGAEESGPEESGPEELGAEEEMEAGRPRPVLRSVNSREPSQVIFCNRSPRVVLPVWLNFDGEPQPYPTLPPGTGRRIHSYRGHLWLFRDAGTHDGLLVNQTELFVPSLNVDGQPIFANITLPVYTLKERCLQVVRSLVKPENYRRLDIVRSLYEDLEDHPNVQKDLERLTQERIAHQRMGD
As to `Cc1sc2c(c1C)C(c1ccc(Cl)cc1)=N[C@@H](CC(=O)NCCCCCC(=O)NCCCC#Cc1cccc3c1CN(C1CCC(=O)NC1=O)C3=O)c1nnc(C)n1-2` (stereo in doubt) [listing 1 of 2 here], the pDC50 is given as 7.3.

Turning to `Cc1ncsc1-c1ccc(CNC(=O)[C@@H]2C[C@@H](O)CN2C(=O)[C@@H](NC(=O)CCCCCCNC(=O)C[C@@H]2N=C(c3ccc(Cl)cc3)c3c(sc(C)c3C)-n3c(C)nnc32)C(C)(C)C)cc1` (stereo in doubt) [listing 1 of 2 here], the pDC50 was 6.9.

On to `Cc1sc2c(c1C)C(c1ccc(Cl)cc1)=N[C@@H](CC(=O)N1CCN(CC3CCN(c4ccc5c(c4)CN(C4CCC(=O)NC4=O)C5=O)CC3)CC1)c1nnc(C)n1-2` (stereo in doubt) [listing 1 of 2 here], for which the pDC50 stood at 9.1.

For the compound `Cc1sc2c(c1C)C(c1ccc(Cl)cc1)=N[C@@H](CC(=O)N1CCN(CC#Cc3ccc4c(c3)CN(C3CCC(=O)NC3=O)C4=O)CC1)c1nnc(C)n1-2` (stereo in doubt), the pDC50 is reported as 8.

For the compound `Cc1sc2c(c1C)C(c1ccc(Cl)cc1)=N[C@@H](CC(=O)N1CCC(CCN3CCC4(CC3)CCN(c3ccc5c(c3)CN(C3CCC(=O)NC3=O)C5=O)CC4)CC1)c1nnc(C)n1-2` (stereo in doubt) [listing 1 of 2 here], the pDC50 was 9.

Take `Cc1sc2c(c1C)C(c1ccc(Cl)cc1)=N[C@@H](CC(=O)N1CCC3(CCN(CC4CCN(c5ccc6c(c5)CN(C5CCC(=O)NC5=O)C6=O)CC4)CC3)CC1)c1nnc(C)n1-2` (stereo in doubt) [listing 1 of 2 here]: the pDC50 amounted to 9.2.

Take `Cc1sc2c(c1C)C(c1ccc(Cl)cc1)=N[C@@H](CC(=O)N1CCN(CCC3CCN(c4ccc5c(c4)CN(C4CCC(=O)NC4=O)C5=O)CC3)CC1)c1nnc(C)n1-2` (stereo in doubt) [listing 1 of 2 here]: the pDC50 was found to be 8.8.

Turning to `Cc1ncsc1-c1ccc(CNC(=O)[C@@H]2C[C@@H](O)CN2C(=O)[C@@H](NC(=O)CN2CCN(C(=O)CCCCCNC(=O)C[C@@H]3N=C(c4ccc(Cl)cc4)c4c(sc(C)c4C)-n4c(C)nnc43)CC2)C(C)(C)C)cc1` (stereo in doubt) [listing 1 of 2 here], the pDC50 turned out to be 6.3.

For the compound `Cc1sc2c(c1C)C(c1ccc(Cl)cc1)=N[C@@H](CC(=O)N1CCN(CCCC3CCN(c4ccc5c(c4)CN(C4CCC(=O)NC4=O)C5=O)CC3)CC1)c1nnc(C)n1-2` (stereo in doubt) [listing 1 of 2 here], the pDC50 is recorded as 8.8.

In the case of `Cc1sc2c(c1C)C(c1ccc(Cl)cc1)=N[C@@H](CC(=O)NCCCCCC(=O)N1CCN(CCCC3CCN(c4ccc5c(c4)CN(C4CCC(=O)NC4=O)C5=O)CC3)CC1)c1nnc(C)n1-2` (stereo in doubt) [listing 1 of 2 here], the pDC50 came out at 9.3.

As to `Cc1sc2c(c1C)C(c1ccc(Cl)cc1)=N[C@@H](CC(=O)N1CCC3(CC1)CCN(c1ccc4c(c1)CN(C1CCC(=O)NC1=O)C4=O)CC3)c1nnc(C)n1-2` (stereo in doubt) [listing 1 of 2 here], the pDC50 was 8.8.

Regarding `Cc1sc2c(c1C)C(c1ccc(Cl)cc1)=N[C@@H](CC(=O)N1CCN(CC3CCN(c4ccc5c(c4)CN(C4CCC(=O)NC4=O)C5=O)CC3)CC1)c1nnc(C)n1-2` (stereo in doubt; 1P) [listing 1 of 2 here], the pDC50 is 9.7.

Consider `Cc1sc2c(c1C)C(c1ccc(Cl)cc1)=N[C@@H](CC(=O)N1CCC(CCN3CCC4(CC3)CCN(c3ccc5c(c3)CN(C3CCC(=O)NC3=O)C5=O)CC4)CC1)c1nnc(C)n1-2` (stereo in doubt; 2P) [listing 1 of 2 here], for which the pDC50 turned out to be 9.2.

For the compound `Cc1sc2c(c1C)C(c1ccc(Cl)cc1)=N[C@@H](CC(=O)N1CCC3(CCN(CC4CCN(c5ccc6c(c5)CN(C5CCC(=O)NC5=O)C6=O)CC4)CC3)CC1)c1nnc(C)n1-2` (stereo in doubt; 3P) [listing 1 of 2 here], the pDC50 was determined as 9.1.

On to `Cc1sc2c(c1C)C(c1ccc(Cl)cc1)=N[C@@H](CC(=O)N1CCN(CC#Cc3ccc4c(c3)CN(C3CCC(=O)NC3=O)C4=O)CC1)c1nnc(C)n1-2` (stereo in doubt; 4P) [listing 1 of 2 here], for which the pDC50 is 8.5.

For the compound `Cc1sc2c(c1C)C(c1ccc(Cl)cc1)=N[C@@H](CC(=O)N1CCC3(CC1)CCN(c1ccc4c(c1)CN(C1CCC(=O)NC1=O)C4=O)CC3)c1nnc(C)n1-2` (stereo in doubt; 5P), the pDC50 was found to be 8.6.

Consider `Cc1sc2c(c1C)C(c1ccc(Cl)cc1)=N[C@@H](CC(=O)N1CCN(CCC3CCN(c4ccc5c(c4)CN(C4CCC(=O)NC4=O)C5=O)CC3)CC1)c1nnc(C)n1-2` (stereo in doubt; 6P) [listing 1 of 2 here], for which the pDC50 came out at 9.4.

For the compound `Cc1ncsc1-c1ccc(CNC(=O)[C@@H]2C[C@@H](O)CN2C(=O)[C@@H](NC(=O)CCCCCCNC(=O)C[C@@H]2N=C(c3ccc(Cl)cc3)c3c(sc(C)c3C)-n3c(C)nnc32)C(C)(C)C)cc1` (stereo in doubt; 7P) [listing 1 of 2 here], the pDC50 worked out at 6.8.

On to `Cc1ncsc1-c1ccc(CNC(=O)[C@@H]2C[C@@H](O)CN2C(=O)[C@@H](NC(=O)CN2CCN(C(=O)CCCCCNC(=O)C[C@@H]3N=C(c4ccc(Cl)cc4)c4c(sc(C)c4C)-n4c(C)nnc43)CC2)C(C)(C)C)cc1` (stereo in doubt; 8P) [listing 1 of 2 here], for which the pDC50 was found to be 6.2.

As to `Cc1sc2c(c1C)C(c1ccc(Cl)cc1)=N[C@@H](CC(=O)NCCCCCC(=O)NCCCC#Cc1cccc3c1CN(C1CCC(=O)NC1=O)C3=O)c1nnc(C)n1-2` (stereo in doubt; 9P) [listing 1 of 2 here], the pDC50 stood at 7.4.

Consider `Cc1sc2c(c1C)C(c1ccc(Cl)cc1)=N[C@@H](CC(=O)NCCCCCC(=O)N1CCN(CCCC3CCN(c4ccc5c(c4)CN(C4CCC(=O)NC4=O)C5=O)CC3)CC1)c1nnc(C)n1-2` (stereo in doubt; 10P) [listing 1 of 2 here], for which the pDC50 stood at 9.8.

As to `Cc1sc2c(c1C)C(c1ccc(Cl)cc1)=N[C@@H](CC(=O)N1CCN(CCCC3CCN(c4ccc5c(c4)CN(C4CCC(=O)NC4=O)C5=O)CC3)CC1)c1nnc(C)n1-2` (stereo in doubt; 11P), the pDC50 is on record as 9.7.

The target in the next assay is T1, von Hippel-Lindau disease tumor suppressor/Bromodomain-containing protein 4. Briefly: Protac activity at VHL E3 ligase/BRD4 in HEK293 cells assessed as degradation maximum by HiBiT assay relative to control. The format is cell-based.
As a reminder, the Emax is the greatest response seen or fitted, relative to the assay's reference. In the case of `Cc1ncsc1-c1ccc(CNC(=O)[C@@H]2C[C@@H](O)CN2C(=O)[C@@H](NC(=O)CCCCCCNC(=O)C[C@@H]2N=C(c3ccc(Cl)cc3)c3c(sc(C)c3C)-n3c(C)nnc32)C(C)(C)C)cc1` (stereo in doubt) [listing 2 of 2 here], the Emax came to 96%.

With `Cc1ncsc1-c1ccc(CNC(=O)[C@@H]2C[C@@H](O)CN2C(=O)[C@@H](NC(=O)CN2CCN(C(=O)CCCCCNC(=O)C[C@@H]3N=C(c4ccc(Cl)cc4)c4c(sc(C)c4C)-n4c(C)nnc43)CC2)C(C)(C)C)cc1` (stereo in doubt) [listing 2 of 2 here], the maximal response (Emax) turned out to be 101%.

On to `Cc1sc2c(c1C)C(c1ccc(Cl)cc1)=N[C@@H](CC(=O)N1CCC(CCN3CCC4(CC3)CCN(c3ccc5c(c3)CN(C3CCC(=O)NC3=O)C5=O)CC4)CC1)c1nnc(C)n1-2` (stereo in doubt) [listing 2 of 2 here], for which the Emax turned out to be 100%.

In the case of `Cc1sc2c(c1C)C(c1ccc(Cl)cc1)=N[C@@H](CC(=O)N1CCC3(CC1)CCN(c1ccc4c(c1)CN(C1CCC(=O)NC1=O)C4=O)CC3)c1nnc(C)n1-2` (stereo in doubt) [listing 2 of 2 here], the Emax was 100%.

Turning to `Cc1sc2c(c1C)C(c1ccc(Cl)cc1)=N[C@@H](CC(=O)N1CCC3(CCN(CC4CCN(c5ccc6c(c5)CN(C5CCC(=O)NC5=O)C6=O)CC4)CC3)CC1)c1nnc(C)n1-2` (stereo in doubt) [listing 2 of 2 here], the maximal response (Emax) was determined as 99%.

`Cc1sc2c(c1C)C(c1ccc(Cl)cc1)=N[C@@H](CC(=O)N1CCN(CC3CCN(c4ccc5c(c4)CN(C4CCC(=O)NC4=O)C5=O)CC3)CC1)c1nnc(C)n1-2` (stereo in doubt) [listing 2 of 2 here]: the Emax turned out to be 100%.

For the compound `Cc1sc2c(c1C)C(c1ccc(Cl)cc1)=N[C@@H](CC(=O)N1CCN(CCC3CCN(c4ccc5c(c4)CN(C4CCC(=O)NC4=O)C5=O)CC3)CC1)c1nnc(C)n1-2` (stereo in doubt) [listing 2 of 2 here], the Emax worked out at 99%.

As for `Cc1sc2c(c1C)C(c1ccc(Cl)cc1)=N[C@@H](CC(=O)N1CCN(CCCC3CCN(c4ccc5c(c4)CN(C4CCC(=O)NC4=O)C5=O)CC3)CC1)c1nnc(C)n1-2` (stereo in doubt) [listing 2 of 2 here], the maximal effect (Emax) worked out at 100%.

On to `Cc1sc2c(c1C)C(c1ccc(Cl)cc1)=N[C@@H](CC(=O)NCCCCCC(=O)N1CCN(CCCC3CCN(c4ccc5c(c4)CN(C4CCC(=O)NC4=O)C5=O)CC3)CC1)c1nnc(C)n1-2` (stereo in doubt) [listing 2 of 2 here], for which the maximal effect (Emax) was 100%.

For `Cc1sc2c(c1C)C(c1ccc(Cl)cc1)=N[C@@H](CC(=O)NCCCCCC(=O)NCCCC#Cc1cccc3c1CN(C1CCC(=O)NC1=O)C3=O)c1nnc(C)n1-2` (stereo in doubt) [listing 2 of 2 here], the Emax was found to be 93%.

For the compound `Cc1sc2c(c1C)C(c1ccc(Cl)cc1)=N[C@@H](CC(=O)N1CCN(CC3CCN(c4ccc5c(c4)CN(C4CCC(=O)NC4=O)C5=O)CC3)CC1)c1nnc(C)n1-2` (stereo in doubt; 1P) [listing 2 of 2 here], the Emax is 89%.

With `Cc1sc2c(c1C)C(c1ccc(Cl)cc1)=N[C@@H](CC(=O)N1CCC(CCN3CCC4(CC3)CCN(c3ccc5c(c3)CN(C3CCC(=O)NC3=O)C5=O)CC4)CC1)c1nnc(C)n1-2` (stereo in doubt; 2P) [listing 2 of 2 here], the Emax is 90%.

With `Cc1sc2c(c1C)C(c1ccc(Cl)cc1)=N[C@@H](CC(=O)N1CCC3(CCN(CC4CCN(c5ccc6c(c5)CN(C5CCC(=O)NC5=O)C6=O)CC4)CC3)CC1)c1nnc(C)n1-2` (stereo in doubt; 3P) [listing 2 of 2 here], the maximal response (Emax) is 80%.

For `Cc1sc2c(c1C)C(c1ccc(Cl)cc1)=N[C@@H](CC(=O)N1CCN(CC#Cc3ccc4c(c3)CN(C3CCC(=O)NC3=O)C4=O)CC1)c1nnc(C)n1-2` (stereo in doubt; 4P) [listing 2 of 2 here], the maximal effect (Emax) was 91%.

For the compound `Cc1sc2c(c1C)C(c1ccc(Cl)cc1)=N[C@@H](CC(=O)N1CCN(CCC3CCN(c4ccc5c(c4)CN(C4CCC(=O)NC4=O)C5=O)CC3)CC1)c1nnc(C)n1-2` (stereo in doubt; 6P) [listing 2 of 2 here], the Emax was determined as 79%.

For `Cc1ncsc1-c1ccc(CNC(=O)[C@@H]2C[C@@H](O)CN2C(=O)[C@@H](NC(=O)CCCCCCNC(=O)C[C@@H]2N=C(c3ccc(Cl)cc3)c3c(sc(C)c3C)-n3c(C)nnc32)C(C)(C)C)cc1` (stereo in doubt; 7P) [listing 2 of 2 here], the maximal response (Emax) came to 94%.

As to `Cc1ncsc1-c1ccc(CNC(=O)[C@@H]2C[C@@H](O)CN2C(=O)[C@@H](NC(=O)CN2CCN(C(=O)CCCCCNC(=O)C[C@@H]3N=C(c4ccc(Cl)cc4)c4c(sc(C)c4C)-n4c(C)nnc43)CC2)C(C)(C)C)cc1` (stereo in doubt; 8P) [listing 2 of 2 here], the Emax turned out to be 80%.

For `Cc1sc2c(c1C)C(c1ccc(Cl)cc1)=N[C@@H](CC(=O)NCCCCCC(=O)NCCCC#Cc1cccc3c1CN(C1CCC(=O)NC1=O)C3=O)c1nnc(C)n1-2` (stereo in doubt; 9P) [listing 2 of 2 here], the Emax was found to be 83%.

Turning to `Cc1sc2c(c1C)C(c1ccc(Cl)cc1)=N[C@@H](CC(=O)NCCCCCC(=O)N1CCN(CCCC3CCN(c4ccc5c(c4)CN(C4CCC(=O)NC4=O)C5=O)CC3)CC1)c1nnc(C)n1-2` (stereo in doubt; 10P) [listing 2 of 2 here], the Emax was found to be 99%.
